Patent US4946957A, “Anti-tumor DC-52 derivatives” (Kyowa Hakko Kogyo Co., Ltd., priority 1986, dated 1990)
Like-named read-outs stand apart in the source and are kept apart here.

Experiments:
[1] = in words; Japanese Published Unexamined Patent Application No. 210086/84; cited from earlier work
[2] = test system: lymphocytic leukemia P-388; experiment: Anti-tumor activity against lymphocytic leukemia P-388 (i.p. implanted, single i.p. dose); format: in vivo, male CDF mice; conditions: Mus musculus, P388, ip, read-out: T/C
Method: The experiment was carried out in the following manner.
Five male CDF mice each having a weight of about 22 g were used for each group as test animals, and 1×10^6 cells of lymphocytic leukemia P-388 tumor were implanted intraperitoneally into the test animals. After 24 hours, 0.2 ml of phosphate-buffered physiological saline containing a test compound was administered once intraperitoneally. The life-prolongingeffect of the compound was represented by T/C.

[3] = Acute toxicity (single i.p. administration); conditions: mouse, in vivo, ip, ddy mice, method of Behrens-Kolber
Method: Five ddy mice were used for each group as test animals, and each test compound was administered once intraperitoneally to the respective groups of animals. LD50 was calculated from the death-rate of each group according to the method of Behrens-Kolber.

[4] = test system: a variety of bacteria; conditions: in words; Japanese Published Unexamined Patent Application No. 170189/82; cited from earlier work
[5] = test system: lymphocytic leukemia P-388; conditions: in words; Japanese Published Unexamined Patent Application No. 170189/82; cited from earlier work
[6] = dose 25 mg/kg, single i.p., 24 hours after implantation of 1×10^6 P-388 cells, life-prolonging effect
[7] = dose 12.5 mg/kg, single i.p., 24 hours after implantation of 1×10^6 P-388 cells, life-prolonging effect

Structure (SMILES): COc1cccc2c1C(CO)N1C(C#N)C3CC(C(=O)O)C(C1C2)N3C (stereo not shown) [DX-52-1]
- anti-tumor activity [1]: having anti-tumor activity

Structure (SMILES): COc1ccc(I)c2c1C1COC3C4CC(C(=O)O)C(C(C2)N13)N4C (stereo not shown) [Compound 6]
- response vs control in vivo at 25 mg/kg [2, 6]: 124%

Structure (SMILES): COc1ccc(C#N)c2c1C1COC3C4CC(C(=O)O)C(C(C2)N13)N4C (stereo not shown) [Compound 10]
- LD50 [3]: > 50 mg/kg

Structure (SMILES): COc1ccc(O)c2c1C(CO)N1C(C#N)C3CC(C(=O)O)C(C1C2)N3C (stereo not shown) [Compound 11]
- response vs control in vivo at 25 mg/kg [2, 6]: 142%

Structure (SMILES): COc1ccc(C=O)c2c1C(CO)N1C(C#N)C3CC(C(=O)O)C(C1C2)N3C (stereo not shown) [Compound 7]
- response vs control in vivo at 200 mg/kg ([2]; dose 200 mg/kg, single i.p., 24 hours after implantation of 1×10^6 P-388 cells, life-prolonging effect): 138%

Structure (SMILES): COc1ccc(Br)c2c1C(CO)N1C(C#N)C3CC(C(=O)O)C(C1C2)N3C (stereo not shown) [Compound 3]
- LD50 [3]: 50 mg/kg

Structure (SMILES): COc1cccc2c1C1COC3C4CC(C(=O)O)C(C(C2)N13)N4C (stereo not shown) [DC-52]
- antibacterial activity [4]: shows antibacterial activity against a variety of bacteria
- anti-tumor activity against lymphocytic leukemia P-388 and the like [5]: has anti-tumor activity against lymphocytic leukemia P-388 and the like

Structure (SMILES): COc1ccc(C#N)c2c1C(CO)N1C(C#N)C3CC(C(=O)O)C(C1C2)N3C (stereo not shown) [Compound 9]
- response vs control in vivo at 25 mg/kg ([2]; 24 h): 140%
- LD50 [3]: > 100 mg/kg

Structure (SMILES): COc1ccc(I)c2c1C(CO)N1C(C#N)C3CC(C(=O)O)C(C1C2)N3C (stereo not shown) [Compound 5]
- response vs control in vivo at 50 mg/kg ([2]; 24 h): 131%
- LD50 [3]: 100 mg/kg

Structure (SMILES): COc1ccc(Cl)c2c1C1COC3C4CC(C(=O)O)C(C(C2)N13)N4C (stereo not shown) [Compound 2]
- response vs control in vivo at 12.5 mg/kg [2, 7]: 140%

Structure (SMILES): COc1ccc(Cl)c2c1C(CO)N1C(C#N)C3CC(C(=O)O)C(C1C2)N3C (stereo not shown) [Compound 1]
- response vs control in vivo at 12.5 mg/kg ([2]; 24 h): 123%
- LD50 [3]: 50 mg/kg

Structure (SMILES): COc1ccc(Br)c2c1C1COC3C4CC(C(=O)O)C(C(C2)N13)N4C (stereo not shown) [Compound 4]
- response vs control in vivo at 12.5 mg/kg [2, 7]: 150%
